Results taken from patent US20240285613A1, “TREATMENT FOR AUTOIMMUNE DISEASES” (LDN Pharma Limited, priority 2021, published 2024).

How the values were obtained:
Type in all cases: cell-based, human
Settings in all cases: 4 h
5-HT receptor 2B, mRNA = experiment: Microarray gene expression in CD3+ lymphocytes, probe ILMN_1735764 (HTR2B)
Description: (§1) CD3+ lymphocytes were isolated from the blood of haematologically normal volunteers. Cells placed into 25 cm^3 flasks at a concentration of 1×10^6/ml, and left to equilibrate in an incubator with a humidified atmosphere and 5% CO2 in air at 37° C. […] RNA extraction was performed using Trizol according to standard procedures, before being processed for microarray analysis according to the standard methodologies. Briefly, equal amounts of biotinylated cRNA was hybridised to the Illumina human HT 12-v3 arrays for 18 h and subsequently processed according to manufacturer's instructions before scanning on an Illumina BeadArray Reader. The image data were processed using default values in GenomeStudio v2009.1 with imputation of missing data, before loading onto GeneSpring v9.0 for data normalisation and filtering. Data analyses were performed using Excel software, and the ratio of gene expression signals in treated vs. untreated calculated.

[1] = tested on: 5-HT receptor 4, transcript variant hb, mRNA; experiment: Microarray gene expression in CD3+ lymphocytes, probe ILMN_1808258 (HTR4)
Description: as §1

[2] = tested on: mRNA for one or more of 5-HT receptor proteins; experiment: Microarray gene expression in CD3+ lymphocytes, summary over 5-HT receptors
Description: as §1

[3] = tested on: 5-HT receptor 3A, transcript variant 2, mRNA; experiment: Microarray gene expression in CD3+ lymphocytes, probe ILMN_1662070 (HTR3A)
Description: as §1

5-HT receptor 1E, mRNA = experiment: Microarray gene expression in CD3+ lymphocytes, probe ILMN_1794095 (HTR1E)
Description: as §1

[4] = tested on: 5-HT receptor 7 (adenylate cyclase-coupled), transcript variant a, mRNA; experiment: Microarray gene expression in CD3+ lymphocytes, probe ILMN_1744217 (HTR7)
Description: as §1

[5] = tested on: 5-HT receptor 3A, transcript variant 1, mRNA; experiment: Microarray gene expression in CD3+ lymphocytes, probe ILMN_1681492 (HTR3A)
Description: as §1

5-HT receptor 2C, mRNA = experiment: Microarray gene expression in CD3+ lymphocytes, probe ILMN_1801357 (HTR2C)
Description: as §1

[6] = tested on: 5-HT receptor 3A, transcript variant 2, mRNA; experiment: Microarray gene expression in CD3+ lymphocytes, probe ILMN_2371079 (HTR3A)
Description: as §1

[7] = tested on: 5-HT receptor 4, transcript variant a, mRNA; experiment: Microarray gene expression in CD3+ lymphocytes, probe ILMN_1676350 (HTR4)
Description: as §1

SMILES: O=C1CC[C@@]2(O)[C@H]3Cc4ccc(O)c5c4[C@@]2(CCN3CC2CC2)[C@H]1O5 [NTX, 17-cyclopropylmethyl-4.5-epoxy-3,14-dihydroxymorphinan-6-one]
- gene expression signal, HTR2B (5-HT receptor 2B, mRNA; LDN 10 nM): 147.45
- gene expression signal, HTR2B (5-HT receptor 2B, mRNA; NTX 10 uM): 177.95
- gene expression signal, HTR4 transcript variant hb ([1]; LDN 10 nM): 93.50
- gene expression signal, HTR4 transcript variant hb ([1]; NTX 10 uM): 88.20
- levels of mRNA for one or more of 5-HT receptor proteins ([2]; higher dose naltrexone (10 uM)): increase the levels of mRNA
- levels of mRNA for one or more of 5-HT receptor proteins ([2]; low dose naltrexone (10 nM)): increase the levels of mRNA
- gene expression signal, HTR3A transcript variant 2 ([3]; LDN 10 nM): 82.35
- gene expression signal, HTR3A transcript variant 2 ([3]; NTX 10 uM): 80.60
- gene expression signal, HTR1E (5-HT receptor 1E, mRNA; LDN 10 nM): 101.20
- gene expression signal, HTR1E (5-HT receptor 1E, mRNA; NTX 10 uM): 95.70
- gene expression signal, HTR7 transcript variant a ([4]; LDN 10 nM): 80.00
- gene expression signal, HTR7 transcript variant a ([4]; NTX 10 uM): 86.60
- gene expression signal, HTR3A transcript variant 1 ([5]; LDN 10 nM): 94.00
- gene expression signal, HTR3A transcript variant 1 ([5]; NTX 10 uM): 86.75
- gene expression signal, HTR2C (5-HT receptor 2C, mRNA; LDN 10 nM): 85.50
- gene expression signal, HTR2C (5-HT receptor 2C, mRNA; NTX 10 uM): 89.50
- gene expression signal, HTR3A transcript variant 2 ([6]; LDN 10 nM): 124.70
- gene expression signal, HTR3A transcript variant 2 ([6]; NTX 10 uM): 151.75
- gene expression signal, HTR4 transcript variant a ([7]; LDN 10 nM): 100.20
- gene expression signal, HTR4 transcript variant a ([7]; NTX 10 uM): 96.10
